Experimental data taken from article PMC7916272, “Colorimetric LPMO assay with direct implication for cellulolytic activity” (Biotechnology for Biofuels, 2021).

Assays:
Assay in all cases: absorbance of PHP at […] nm
Format in all cases: biochemical
LsAA9A = target: T1, LsAA9A (Panus similis, UniProt A0A0S2GKZ1); conditions: 1 µM Cu-loaded enzyme, with or without DHA, 40 °C, 30 min
T1 construct: gene LPMO9A; gift from Novozymes, purified to homogeneity, loaded with CuCl2
T1 sequence (A0A0S2GKZ1 20-254): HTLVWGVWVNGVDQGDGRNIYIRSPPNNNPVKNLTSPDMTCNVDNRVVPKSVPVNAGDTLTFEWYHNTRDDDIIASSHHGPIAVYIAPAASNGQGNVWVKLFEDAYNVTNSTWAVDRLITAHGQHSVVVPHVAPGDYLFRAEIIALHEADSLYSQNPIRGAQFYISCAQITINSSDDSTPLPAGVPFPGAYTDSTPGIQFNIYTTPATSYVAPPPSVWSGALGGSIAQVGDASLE

TfAA10A = target: T2, TfAA10A (Thermobifida fusca, UniProt Q47QG3); conditions: 1 µM Cu-loaded enzyme, with or without DHA, 40 °C, 30 min
T2 construct: gene Tfu_1268; expressed using LyGo platform, purified to homogeneity, loaded with CuCl2
T2 sequence (Q47QG3 37-222): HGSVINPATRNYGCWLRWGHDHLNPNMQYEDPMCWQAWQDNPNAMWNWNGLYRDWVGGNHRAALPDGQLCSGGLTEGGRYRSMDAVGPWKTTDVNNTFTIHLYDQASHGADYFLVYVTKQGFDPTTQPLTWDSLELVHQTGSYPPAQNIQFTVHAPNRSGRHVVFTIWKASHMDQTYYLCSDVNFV

SmAA10 = target: T3, SmAA10 (Serratia marcescens, UniProt P9WEM3); conditions: 1 µM Cu-loaded enzyme, with or without DHA, 40 °C, 30 min
T3 construct: gene CBP21; expressed using LyGo platform, purified to homogeneity, loaded with CuCl2

TtAA9 = target: T4, TtAA9 (Thermothielavioides terrestris, UniProt D0VWZ9); conditions: 1 µM Cu-loaded enzyme, with or without DHA, 40 °C, 30 min
T4 construct: gene gh61e; gift from Novozymes, purified to homogeneity, loaded with CuCl2

CotA = target: T5, CotA (Bacillus subtilis, UniProt H8WGE7); conditions: […] enzyme, with or without DHA, […] °C, […] min
T5 construct: recombinant from Escherichia coli, purified to homogeneity
T5 sequence (H8WGE7 1-513): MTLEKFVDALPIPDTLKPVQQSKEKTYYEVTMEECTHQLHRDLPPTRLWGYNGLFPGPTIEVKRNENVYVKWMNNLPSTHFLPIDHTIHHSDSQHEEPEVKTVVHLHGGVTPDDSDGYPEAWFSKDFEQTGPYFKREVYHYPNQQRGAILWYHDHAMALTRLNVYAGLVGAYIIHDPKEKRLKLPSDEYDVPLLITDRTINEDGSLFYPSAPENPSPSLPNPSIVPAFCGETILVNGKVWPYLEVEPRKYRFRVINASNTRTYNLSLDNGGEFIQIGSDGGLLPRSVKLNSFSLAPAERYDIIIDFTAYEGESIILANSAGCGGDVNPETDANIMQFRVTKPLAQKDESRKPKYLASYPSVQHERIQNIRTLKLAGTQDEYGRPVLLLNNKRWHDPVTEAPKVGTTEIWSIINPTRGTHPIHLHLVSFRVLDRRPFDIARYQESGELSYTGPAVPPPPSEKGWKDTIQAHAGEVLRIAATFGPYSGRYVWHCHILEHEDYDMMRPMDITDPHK

MtL = target: T6, MtL (Thermothelomyces thermophilus, UniProt G2QFD0); conditions: 1 µM enzyme, with or without DHA, 40 °C, 30 min
T6 construct: gene LMCO1; gift from Novozymes, purified to homogeneity
T6 sequence (G2QFD0 21-650): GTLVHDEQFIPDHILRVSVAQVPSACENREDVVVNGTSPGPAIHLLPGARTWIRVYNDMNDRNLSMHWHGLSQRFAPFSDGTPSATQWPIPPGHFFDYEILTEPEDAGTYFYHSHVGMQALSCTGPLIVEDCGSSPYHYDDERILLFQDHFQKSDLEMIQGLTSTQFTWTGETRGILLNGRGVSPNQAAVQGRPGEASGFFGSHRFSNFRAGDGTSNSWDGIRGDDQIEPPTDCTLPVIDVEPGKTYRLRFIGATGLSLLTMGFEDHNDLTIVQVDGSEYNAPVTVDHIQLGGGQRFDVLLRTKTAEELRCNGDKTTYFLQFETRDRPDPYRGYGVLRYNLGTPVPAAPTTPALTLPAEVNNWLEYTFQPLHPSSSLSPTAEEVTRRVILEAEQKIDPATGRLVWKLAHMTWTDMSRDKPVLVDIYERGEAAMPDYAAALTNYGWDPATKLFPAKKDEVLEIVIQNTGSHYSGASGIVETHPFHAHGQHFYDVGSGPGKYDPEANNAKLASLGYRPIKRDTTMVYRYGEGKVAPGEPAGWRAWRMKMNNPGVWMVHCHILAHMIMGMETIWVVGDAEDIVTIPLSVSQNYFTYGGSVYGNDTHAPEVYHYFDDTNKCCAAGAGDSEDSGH

AnAA13 = target: T7, AnAA13 (Aspergillus nidulans, UniProt Q5B1W7); conditions: 1 µM Cu-loaded enzyme, with or without DHA, 40 °C, 30 min
T7 construct: gene aasA; gift from Novozymes, purified to homogeneity, loaded with CuCl2
T7 sequence (Q5B1W7 19-385): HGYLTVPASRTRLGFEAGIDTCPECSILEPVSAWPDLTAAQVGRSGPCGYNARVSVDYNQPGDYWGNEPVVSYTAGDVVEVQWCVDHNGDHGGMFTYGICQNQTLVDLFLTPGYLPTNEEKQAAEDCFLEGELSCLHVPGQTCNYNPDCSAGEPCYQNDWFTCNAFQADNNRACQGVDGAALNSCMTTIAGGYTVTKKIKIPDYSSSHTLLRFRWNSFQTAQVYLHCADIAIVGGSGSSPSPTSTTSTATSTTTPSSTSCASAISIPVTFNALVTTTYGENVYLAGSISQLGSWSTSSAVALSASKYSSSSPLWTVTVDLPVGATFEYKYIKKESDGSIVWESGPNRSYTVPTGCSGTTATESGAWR

T4 sequence (D0VWZ9 entry or part of it): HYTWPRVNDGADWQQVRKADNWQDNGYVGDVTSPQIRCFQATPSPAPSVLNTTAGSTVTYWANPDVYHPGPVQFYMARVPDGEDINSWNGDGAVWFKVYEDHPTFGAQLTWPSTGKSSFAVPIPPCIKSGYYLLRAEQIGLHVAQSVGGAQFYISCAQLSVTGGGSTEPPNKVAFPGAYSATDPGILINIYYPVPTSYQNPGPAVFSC
T3 sequence (P9WEM3 28-197): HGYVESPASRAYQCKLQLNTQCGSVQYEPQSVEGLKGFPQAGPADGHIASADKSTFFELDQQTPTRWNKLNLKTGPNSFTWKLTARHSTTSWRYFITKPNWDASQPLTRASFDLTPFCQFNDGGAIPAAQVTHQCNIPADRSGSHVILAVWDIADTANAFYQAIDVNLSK

SMILES: O=C(O)c1ccccc1C(c1ccc(O)cc1)c1ccc(O)cc1 [rPHP, reduced phenolphthalein]
- absorbance of PHP at 552 nm (LsAA9A): All LPMOs tested oxidise rPHP in a DHA dependent reaction
- absorbance of PHP at 552 nm (TfAA10A): All LPMOs tested oxidise rPHP in a DHA dependent reaction
- absorbance of PHP at 552 nm (SmAA10): All LPMOs tested oxidise rPHP in a DHA dependent reaction
- absorbance of PHP at 552 nm (TtAA9): All LPMOs tested oxidise rPHP in a DHA dependent reaction
- absorbance of PHP at 552 nm (CotA): did oxidise rPHP; however, the rPHP oxidising activity of these enzymes was not enhanced
- absorbance of PHP at 552 nm (MtL): did oxidise rPHP; however, the rPHP oxidising activity of these enzymes was not enhanced
- absorbance of PHP at 552 nm (AnAA13): AnAA13 stands out with a relatively large rPHP oxidation without DHA
